Experimental data from patent US20230085307A1, “PYRIDAZINONE COMPOUND AND HERBICIDE” (NISSAN CHEMICAL CORPORATION, priority 2019, published 2023).

Assays:
late watergrass [1] = test: Test Example 1: herbicidal activity, application before weed generation under submerged conditions (Table 16, symbol A); format: in vivo, late watergrass (Echinochloa oryzicola)
How it was run: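 Emulsion formulation, water-diluted to set dose, was put onto the flooded surface (4 cm depth, alluvial soil) the same day weeds were sown and 2.5-leaf rice transplanted. After 3 weeks at 25-30 °C under glass, each species was rated 0 (≤5% kill) to 5 (≥90% kill).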

late watergrass [2] = test: Test Example 2: herbicidal activity, application during weed generation under submerged conditions (Table 17, symbol A); format: in vivo, late watergrass (Echinochloa oryzicola); conditions: application during weed generation, submerged conditions
How it was run: (§1)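 Steps: fill Wagner pots with alluvial soil; add water to give 4 cm depth; sow the species mixed; grow under glass at 25–30° C.; at 1–2 leaves apply water-diluted emulsion formulation to the water surface at a fixed herbicide amount; score after 3 weeks.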

Japanese bulrush = test: Test Example 2: herbicidal activity, application during weed generation under submerged conditions (Table 17, symbol B); format: in vivo, Japanese bulrush (Schoenoplectus juncoides); conditions: application during weed generation, submerged conditions
How it was run: as §1

oval-leafed pondweed = test: Test Example 2: herbicidal activity, application during weed generation under submerged conditions (Table 17, symbol C); format: in vivo, oval-leafed pondweed (Monochoria vaginalis); conditions: application during weed generation, submerged conditions
How it was run: as §1

rice flat sedge = test: Test Example 3: herbicidal effect by foliage application, Wagner pot (Table 18, symbol E); format: in vivo, rice flat sedge (Cyperus iria)
How it was run: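 Plants were sown in alluvial soil held under 0.1–0.5 cm standing water and grown 14 days in a greenhouse at 25–30 °C. An emulsifiable formulation, water-diluted to the set dose, was then sprayed onto the foliage, and effects were scored three weeks later using previously defined criteria.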

green foxtail [3] = test: Test Example 4: herbicidal effect by soil treatment (Table 19, symbol G); format: in vivo, green foxtail (Setaria viridis)
How it was run: (§2)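 Three weeks of greenhouse growth at 25° C. to 30° C. followed a uniform surface spray of water-diluted emulsion at a predetermined herbicide amount. Seeds had been sown beforehand under about 1.5 cm of sterilized diluvial soil. Grading followed criteria set out in an earlier test.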

barnyard grass = test: Test Example 4: herbicidal effect by soil treatment (Table 19, symbol H); format: in vivo, barnyard grass (Echinochloa crus-galli)
How it was run: as §2

windgrass = test: Test Example 4: herbicidal effect by soil treatment (Table 19, symbol L); format: in vivo, windgrass (Apera spica-venti)
How it was run: as §2

velvetleaf [4] = test: Test Example 4: herbicidal effect by soil treatment (Table 19, symbol M); format: in vivo, velvetleaf (Abutilon theophrasti)
How it was run: as §2

lambsquarters = test: Test Example 4: herbicidal effect by soil treatment (Table 19, symbol O); format: in vivo, lambsquarters (Chenopodium album)
How it was run: as §2

chickweed = test: Test Example 4: herbicidal effect by soil treatment (Table 19, symbol P); format: in vivo, common chickweed (Stellaria media)
How it was run: as §2

persian speedwell = test: Test Example 4: herbicidal effect by soil treatment (Table 19, symbol R); format: in vivo, Persian speedwell (Veronica persica)
How it was run: as §2

green foxtail [5] = test: Test Example 5: herbicidal effect by foliage application, plastic box (Table 20, symbol G); format: in vivo, green foxtail (Setaria viridis); conditions: foliage application, three weeks after application
How it was run: (§3)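 Plants sown in sterilized diluvial soil and grown 14 days in a greenhouse at 25° C to 30° C, then sprayed on the foliage with the compound's emulsion diluted in water to a predetermined herbicide amount. Injury to weeds and crops scored three weeks after application on a visual rating scale.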

Italian ryegrass = test: Test Example 5: herbicidal effect by foliage application, plastic box (Table 20, symbol K); format: in vivo, Italian ryegrass (Lolium multiflorum); conditions: foliage application, three weeks after application
How it was run: as §3

velvetleaf [6] = test: Test Example 5: herbicidal effect by foliage application, plastic box (Table 20, symbol M); format: in vivo, velvetleaf (Abutilon theophrasti); conditions: foliage application, three weeks after application
How it was run: as §3

[7] = amount of applied herbicide 320 g/ha
[8] = amount of applied herbicide 390 g/ha

SMILES | Herbicidal effect, A: late watergrass (late watergrass [1]; [7]) | herbicidal effect rating, A: late watergrass (late watergrass [2]; AAH 320 g/ha) | herbicidal effect rating, B: Japanese bulrush (Japanese bulrush; AAH 320 g/ha) | herbicidal effect rating, C: oval-leafed pondweed (oval-leafed pondweed; AAH 320 g/ha) | Herbicidal effect on E (rice flat sedge), foliage application (rice flat sedge; [7]) | G: green foxtail, herbicidal effect grade (green foxtail [3]; [7]) | H: barnyard grass, herbicidal effect grade (barnyard grass; [7]) | L: windgrass, herbicidal effect grade (windgrass; [7]) | M: velvetleaf, herbicidal effect grade (velvetleaf [4]; [7]) | O: lambsquarters, herbicidal effect grade (lambsquarters; [7]) | P: chickweed, herbicidal effect grade (chickweed; [7]) | R: persian speedwell, herbicidal effect grade (persian speedwell; [7]) | herbicidal effect on green foxtail (G) (green foxtail [5]; 320 g/ha) | herbicidal effect on Italian ryegrass (K) (Italian ryegrass; 320 g/ha) | herbicidal effect on velvetleaf (M) (velvetleaf [6]; 320 g/ha) | other results
Cc1nn(C)c(=O)c(-c2c(-c3ccc(OCC(F)(F)F)cc3)oc3ccccc23)c1O [8-005] | 5 (Herbicidal rate of 90% or more (almost completely withered)) | 4 (Herbicidal rate of 70% or more and less than 90%) | 3 (Herbicidal rate of 40% or more and less than 70%) | 3 (Herbicidal rate of 40% or more and less than 70%) | 4 (Herbicidal rate of 70% or more and less than 90%) | 4 (Herbicidal rate of 70% or more and less than 90%) | 5 (Herbicidal rate of 90% or more (almost completely withered)) | 0 (Herbicidal rate of 5% or less (almost no effect)) | 3 (Herbicidal rate of 40% or more and less than 70%) | 4 (Herbicidal rate of 70% or more and less than 90%) | 2 (Herbicidal rate of 20% or more and less than 40%) | 4 (Herbicidal rate of 70% or more and less than 90%) | 5 (Herbicidal rate of 90% or more (almost completely withered)) | 5 (Herbicidal rate of 90% or more (almost completely withered)) | 5 (Herbicidal rate of 90% or more (almost completely withered)) | 
CSCCOc1ccc(-c2oc3ccccc3c2-c2c(O)c(C)nn(C)c2=O)cc1 [8-008] | 5 (Herbicidal rate of 90% or more (almost completely withered)) | 2 (Herbicidal rate of 20% or more and less than 40%) | 3 (Herbicidal rate of 40% or more and less than 70%) | 2 (Herbicidal rate of 20% or more and less than 40%) | 4 (Herbicidal rate of 70% or more and less than 90%) | 1 (Herbicidal rate of 5% or more and less than 20%) | 5 (Herbicidal rate of 90% or more (almost completely withered)) | 0 (Herbicidal rate of 5% or less (almost no effect)) | 2 (Herbicidal rate of 20% or more and less than 40%) | 4 (Herbicidal rate of 70% or more and less than 90%) | 5 (Herbicidal rate of 90% or more (almost completely withered)) | 5 (Herbicidal rate of 90% or more (almost completely withered)) | 5 (Herbicidal rate of 90% or more (almost completely withered)) | 5 (Herbicidal rate of 90% or more (almost completely withered)) | 5 (Herbicidal rate of 90% or more (almost completely withered)) | 
COc1ccc(-c2oc3ccc(Cl)cc3c2-c2c(O)c(C)nn(C)c2=O)cc1 [9-002] | 0 (Herbicidal rate of 5% or less (almost no effect)) | 0 (Herbicidal rate of 5% or less (almost no effect)) | 0 (Herbicidal rate of 5% or less (almost no effect)) | 3 (Herbicidal rate of 40% or more and less than 70%) | 2 (Herbicidal rate of 20% or more and less than 40%) | 1 (Herbicidal rate of 5% or more and less than 20%) | 2 (Herbicidal rate of 20% or more and less than 40%) | 5 (Herbicidal rate of 90% or more (almost completely withered)) | 2 (Herbicidal rate of 20% or more and less than 40%) | 4 (Herbicidal rate of 70% or more and less than 90%) | 4 (Herbicidal rate of 70% or more and less than 90%) | 4 (Herbicidal rate of 70% or more and less than 90%) | 0 (Herbicidal rate of 5% or less (almost no effect)) | 3 (Herbicidal rate of 40% or more and less than 70%) | 5 (Herbicidal rate of 90% or more (almost completely withered)) | 
CCCC(=O)Oc1c(C)nn(C)c(=O)c1-c1c(-c2ccc(F)cc2)oc2ccc(C)cc12 [9-005] |  |  |  |  |  |  |  |  |  |  |  |  |  |  |  | Herbicidal effect, A: late watergrass (late watergrass [1]; [8]): 5 (Herbicidal rate of 90% or more (almost completely withered)); herbicidal effect rating, A: late watergrass (late watergrass [2]; AAH 390 g/ha): 0 (Herbicidal rate of 5% or less (almost no effect)); herbicidal effect rating, B: Japanese bulrush (Japanese bulrush; AAH 390 g/ha): 1 (Herbicidal rate of 5% or more and less than 20%); herbicidal effect rating, C: oval-leafed pondweed (oval-leafed pondweed; AAH 390 g/ha): 3 (Herbicidal rate of 40% or more and less than 70%); Herbicidal effect on E (rice flat sedge), foliage application (rice flat sedge; [8]): 2 (Herbicidal rate of 20% or more and less than 40%); G: green foxtail, herbicidal effect grade (green foxtail [3]; [8]): 0 (Herbicidal rate of 5% or less (almost no effect)); H: barnyard grass, herbicidal effect grade (barnyard grass; [8]): 0 (Herbicidal rate of 5% or less (almost no effect)); L: windgrass, herbicidal effect grade (windgrass; [8]): 0 (Herbicidal rate of 5% or less (almost no effect)); M: velvetleaf, herbicidal effect grade (velvetleaf [4]; [8]): 0 (Herbicidal rate of 5% or less (almost no effect)); O: lambsquarters, herbicidal effect grade (lambsquarters; [8]): 3 (Herbicidal rate of 40% or more and less than 70%); P: chickweed, herbicidal effect grade (chickweed; [8]): 5 (Herbicidal rate of 90% or more (almost completely withered)); R: persian speedwell, herbicidal effect grade (persian speedwell; [8]): 3 (Herbicidal rate of 40% or more and less than 70%); herbicidal effect on green foxtail (G) (green foxtail [5]; 390 g/ha): 0 (Herbicidal rate of 5% or less (almost no effect)); herbicidal effect on Italian ryegrass (K) (Italian ryegrass; 390 g/ha): 4 (Herbicidal rate of 70% or more and less than 90%); herbicidal effect on velvetleaf (M) (velvetleaf [6]; 390 g/ha): 5 (Herbicidal rate of 90% or more (almost completely withered))
COc1ccc(-c2oc3ccc(C)cc3c2-c2c(O)c(C)nn(C)c2=O)cc1 [9-007] | 5 (Herbicidal rate of 90% or more (almost completely withered)) | 4 (Herbicidal rate of 70% or more and less than 90%) | 5 (Herbicidal rate of 90% or more (almost completely withered)) | 5 (Herbicidal rate of 90% or more (almost completely withered)) | 5 (Herbicidal rate of 90% or more (almost completely withered)) | 3 (Herbicidal rate of 40% or more and less than 70%) | 3 (Herbicidal rate of 40% or more and less than 70%) | 0 (Herbicidal rate of 5% or less (almost no effect)) | 3 (Herbicidal rate of 40% or more and less than 70%) | 4 (Herbicidal rate of 70% or more and less than 90%) | 4 (Herbicidal rate of 70% or more and less than 90%) | 5 (Herbicidal rate of 90% or more (almost completely withered)) | 4 (Herbicidal rate of 70% or more and less than 90%) | 5 (Herbicidal rate of 90% or more (almost completely withered)) | 5 (Herbicidal rate of 90% or more (almost completely withered)) | 
